Series [1] has as its target T1, hIAPP (Homo sapiens, UniProt P10997).
T1 construct: hormone secreted by β-cells consisting of 37 amino acid residues; purchased ChinaPeptide Co. Ltd. (Shanghai, China); host or cells: chemical synthesis
T1 sequence (P10997 34-70 limits assumed): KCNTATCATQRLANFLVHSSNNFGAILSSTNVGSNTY
The conditions noted are these: ref [25], cited from earlier work; for inhibition of hIAPP aggregation in vitro: [26]. The source says:
In the present study, a pentapeptide inhibitor Phe-Leu-Pro-Asn-Phe (FLPNF) that contains only five amino acids has been designed. […] After that, the ...

The subject of another series is fibrils of hIAPP. The conditions noted are these: ref [25]; cited from earlier work. The source says:
In the early research, SNNFGA and GAILSS could not completely prevent the formation of fibr ...

In a further series the test system is hIAPP amyloid fibrils. Put plainly: Transmission electron microscopy of hIAPP amyloid fibrils. The format is biochemical, human. The conditions noted are these: PBS, 24 hours, 37°C, 2% phosphotungstic acid stain; for hIAPP fibril formation by TEM, with added peptide: 100 μM peptide + 10 μM hIAPP. On the procedure:
TEM was used to directly observe the relative density and morphological changes of hIAPP amyloid fibrils. […] A volume of 10 μL of each sample was placed on mesh copper grids (Servicebio, Wuhan, China) and was covered by a carbon-stabilized formvar film. After 3 min, excess fluid was removed, and the grids were stained with 2% phosphotungstic acid for 3 min. Samples were analyzed using a HT7700 transmission electron microscope (Hitachi, Japan).

The next series relates to INS-1 cells. Put plainly: Cell proliferation assay (MTS), hIAPP cytotoxicity in INS-1 cells.
Series [2] deals with T1, hIAPP. The series is described as follows: Thioflavin T fluorescence assay, time course. The class given is biochemical. The conditions noted are these: for ThT fluorescence intensity compared to hIAPP group, significance: PBS pH 7.4, 37°C, unpaired t-test.
Series [3] addresses T1, hIAPP. Put plainly: Thioflavin T fluorescence assay, concentration dependence. The conditions noted are these: PBS, 24 hours, 37°C. The class given is biochemical. On the procedure: The stock solutions were aliquoted and stored at -80°C according to the instructions.
The plates were incubated at 37°C for 0, 12, 24, and 48 hours. Finally, the fluorescence image was detected by an XDY-100 fluorescence microscope (Zhongheng, Shanghai, China). Subsequently, the fluorescence intensity values of each group were measured by a Fluoroskan Ascent FL luminescence meter (Thermo Scientific, USA) using an excitation λ of 435 nm and an emission λ of 485 nm. At each time course, the fluorescence intensity values of the control group were set as 1, while the values of test groups relative to the control group were set as fluorescence intensity (A.U.) and used for statistical analysis. Each experiment was repeated thrice.
The fluorescence images and the fluorescence intensity values of each group were collected after incubating for 24 hours. Each experiment was repeated thrice.

In series [4] the target is T1, hIAPP. Put plainly: Biolayer interferometry, FLPNF immobilized. The conditions noted are these: hIAPP 400 μM (method) / 100 μM (Figure 5 legend). The format is binding. On the procedure: Experiments were performed by Shuangtian Biotech Co. Ltd. FLPNF were reconstituted in PBS (pH = 7.4) and immobilized on aminopropylsilane (APS) biosensors. […] This was followed by a 600 sec dissociation phase in dissociation buffer (50% DMSO+0.05% PBST) in PBS. A response unit represented the bonding height on the biosensor. The association and dissociation curves were analyzed and constructed by Octet K2 biolayer interferometry.
Background: Biolayer interferometry detects binding as a change in optical thickness at a sensor tip.

Another series relates to islet amyloid. The conditions noted are these: ref [27]; cited from earlier work. The source says: In the present study, a pentapeptide inhibitor Phe-Leu-Pro-Asn-Phe (FLPNF) that contains only five amino acids has been designed. […] Even so, FLPNF was optimally designed and consisted of ...

“Also recorded” adds a separate entry of the source.

Description for INS-1 cells: The INS-1 cells at a density of 2 × 10^4 were plated in a 96-well plate. […] The untreated control cells received equal fresh medium. The medium of each group contained 0.2 μL DMSO, equal to 0.2% DMSO. Consequently, 10 μL MTS solution was added to each well and incubated for additional 2 hours. The optical density (OD) values were measured at 490 nm using a PowerWave XS2 microplate spectrophotometer (Thermo Scientific, USA). Each experiment was repeated thrice.

SNNFGA: the “inhibition of hIAPP aggregation in vitro” value on hIAPP [1] is reported as “can inhibit hIAPP aggregation in vitro”. Besides, the “prevention of hIAPP fibril formation on TEM images” value in the series with fibrils of hIAPP is on record as “could not completely prevent the formation of fibrils of hIAPP”.

As to NYGAILSS, the “inhibition of hIAPP aggregation in vitro” value at hIAPP [1] is on record as “can inhibit hIAPP aggregation in vitro”.

Regarding GAILSS, the “inhibition of hIAPP aggregation in vitro” value at hIAPP [1] is given as “can inhibit hIAPP aggregation in vitro”. For the same substance, the “prevention of hIAPP fibril formation on TEM images” value in the series on fibrils of hIAPP is given as “could not completely prevent the formation of fibrils of hIAPP”.

In the case of NFGAILPP, at hIAPP [1], the “inhibition of hIAPP aggregation in vitro” value is listed as “can inhibit hIAPP aggregation in vitro”.

For the substance “human islet amyloid polypeptide (KCNTATCATQRLANFLVHSSNNFGAILSSTNVGSNTY; Islet amyloid polypeptide; UniProt P10997 34-70, looked up) [hIAPP]”, in the series with hIAPP amyloid fibrils (10 μM hIAPP alone), the “fibril morphology of hIAPP alone by TEM” value is “typical dense fibrils; also recorded: typical morphology and formation of dense aggregates”. For the same substance, the “INS-1 cell viability compared to control group” value in the series with INS-1 cells (10 μM hIAPP alone, 24 hours, OD 490 nm, P < 0.001, unpaired t-test, repeated thrice) is “significantly decreased the cell viability”.

On to Phe-Leu-Pro-Asn-Phe [FLPNF], for which the “ThT fluorescence intensity compared to hIAPP group, significance” value at hIAPP [2] (100 μM FLPNF + 10 μM hIAPP, 24 h, P < 0.05, ex 435 nm, em 485 nm, repeated thrice) is listed as “significantly lowered”; at hIAPP [2] (100 μM FLPNF + 10 μM hIAPP, 48 h, P < 0.01, ex 435 nm, em 485 nm, repeated thrice) it was “significantly lowered”. For the same substance, the “ThT fluorescence intensity compared to hIAPP alone (luminescence meter)” value on hIAPP [2] (100 μM FLPNF + 10 μM hIAPP, PBS pH 7.4, 20 μM ThT, 37°C, 12, 24 and 48 hours, ex 435 nm, em 485 nm, repeated thrice) is listed as “decreased the fluorescence intensity compared to hIAPP alone”. Moreover, the “ThT fluorescence signal (fluorescence microscope)” value on hIAPP [2] (100 μM peptide + 10 μM hIAPP, PBS pH 7.4, 20 μM ThT, 37°C, 24 and 48 hours) is on record as “strong reduction of the fluorescence signal”. The “inhibition of hIAPP amyloid aggregation” value at hIAPP [2] (10 : 1 molar ratio FLPNF to hIAPP, in vitro, ThT) is “strongly inhibited the amyloid aggregation of hIAPP”. The “inhibitory effect at 48 hours” value at hIAPP [2] (in vitro, 48 hours) was “still had an inhibitory effect”. Also, the “inhibition of amyloid formation” value on hIAPP [2] (tenfold molar excess to hIAPP, PBS, 24 hours) is listed as “partially inhibited amyloid formation”. Besides, on hIAPP [3] (0, 20, 50, 100, 200, 400 μM FLPNF + 10 μM hIAPP), the “ThT green fluorescence signal with increasing concentrations (fluorescence microscope)” value is recorded as “gradually decreased”. Further, the “ThT fluorescence intensity with increasing concentrations (luminescence meter)” value on hIAPP [3] (0, 20, 50, 100, 200, 400 μM FLPNF + 10 μM hIAPP, repeated thrice) was “gradually reduced”. In addition, the “ThT fluorescence intensity compared to 0 μM group” value on hIAPP [3] (100, 200 and 400 μM FLPNF + 10 μM hIAPP, P < 0.05, unpaired t-test, repeated thrice) is given as “significantly lowered”. In the series with hIAPP amyloid fibrils, the “hIAPP fibril formation by TEM, with added peptide” value is recorded as “reduced the amounts of fibril formation; also recorded: not completely prevented but were reduced in density; also recorded: less numerous but appeared to be more thickened”. Further, the “association response (response units)” value on hIAPP [4] (FLPNF immobilized on APS biosensor, PBS pH 7.4, association 300 sec, Octet K2) is given as “approximately 0.02 nm”. In addition, on hIAPP [4] (biolayer interferometry, immobilized FLPNF), the “interaction between FLPNF and hIAPP” value is reported as “strong interaction”. In addition, the dissociation entry on hIAPP [4] (dissociation phase 600 sec, 50% DMSO+0.05% PBST in PBS, Octet K2) is “tardily reversible; also recorded: slowly dropped to 0”. Also, the “INS-1 cell viability compared to hIAPP group” value in the series on INS-1 cells (100 μM FLPNF + 10 μM hIAPP, 24 hours, OD 490 nm, P < 0.05, unpaired t-test, repeated thrice) is listed as “significant improvement in cell viability”. In addition, the “INS-1 cell viability, FLPNF alone” value in the series on INS-1 cells (FLPNF alone, no hIAPP, MTS) is on record as “no direct effect on the viability of INS-1 cells; also recorded: no direct effect on cell viability”. Besides, the “INS-1 cell viability compared to control group, with FLPNF + hIAPP” value in the series on INS-1 cells (hIAPP with FLPNF at 1 : 10 ratio, 24 hours, MTS) was “still lower”.

As for NFGAIL [reference compound], on hIAPP [2] (100 μM NFGAIL + 10 μM hIAPP, PBS pH 7.4, 20 μM ThT, 37°C, ex 435 nm, em 485 nm, repeated thrice), the “ThT fluorescence intensity compared to hIAPP group (luminescence meter)” value is recorded as “did not decrease”. Besides, the “ThT fluorescence signal compared to 0 μM group” value on hIAPP [3] (any concentration of NFGAIL (20-400 μM) + 10 μM hIAPP) was “no reduction”. Moreover, in the series with hIAPP amyloid fibrils, the “hIAPP fibril formation by TEM, with added peptide” value is “did not reduce or even increase the amount of the fibril formation; also recorded: No reduction of the fibrils”. Further, the “effect on hIAPP fibril formation” value at hIAPP [1] (residues 22–27 of hIAPP, negative control) is given as “could enhance hIAPP fibril formation”. The “reduction of cytotoxic effects of hIAPP in INS-1 cells” value with INS-1 cells (100 μM NFGAIL + 10 μM hIAPP, 24 hours, MTS, OD 490 nm) was “no effect of reducing the cytotoxic effects of hIAPP”.

As to D-ANFLVH, in the series on islet amyloid, the “reduction of amyloid aggregates in vivo” value was “could reduce the islet amyloid accumulation in vivo; also recorded: can reduce the formation of amyloid aggregates in vivo”.

The values above are taken from PMC6374824 (International Journal of Endocrinology, 2019).
